Measured values taken from article PMC4949533, “Optimization of Inhibitors of Mycobacterium tuberculosis Pantothenate Synthetase Based on Group Efficiency Analysis” (Chemmedchem, 2015).
pIC50: −log10 of the molar value.

target: T1, Mycobacterium tuberculosis pantothenate synthetase (Mycobacterium tuberculosis, UniProt P9WIL4); assay: isothermal titration calorimetry (ITC); format: binding; conditions: active site; lead compound of the group's earlier work; read-out: K D [μM]^[a]; cited from earlier work
T1 construct: gene panC
T1 sequence (P9WIL4 2-309 limits assumed): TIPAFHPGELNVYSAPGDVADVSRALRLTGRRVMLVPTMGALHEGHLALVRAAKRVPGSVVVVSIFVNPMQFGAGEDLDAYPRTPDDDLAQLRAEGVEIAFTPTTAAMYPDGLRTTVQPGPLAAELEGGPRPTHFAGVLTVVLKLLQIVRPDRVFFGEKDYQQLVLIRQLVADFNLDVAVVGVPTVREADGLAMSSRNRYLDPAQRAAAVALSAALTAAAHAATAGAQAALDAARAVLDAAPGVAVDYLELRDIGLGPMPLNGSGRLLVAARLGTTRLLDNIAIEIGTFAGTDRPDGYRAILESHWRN
From the text: isothermal titration calorimetry (ITC) on Mycobacterium tuberculosis pantothenate synthetase

**Q.** With `COc1ccc2c(c1)cc(C(=O)NS(=O)(=O)c1ccc(C)cn1)n2CC(=O)O` [compound 5, 5] as the compound, how does the Kd read?
**A.** 1.5 µM

same assay, conditions: read-out: K D [μM]^[a]

**Q.** For `COc1ccc2c(c1)cc(C(=O)NS(=O)(=O)c1ccc(C)cc1)n2CC(=O)O` [compound 10, 10], which Kd is on record?
**A.** 0.34 µM

**Q.** For `COc1ccc2c(c1)cc(C(=O)NS(=O)(=O)c1ccc(C(F)(F)F)cc1)n2CC(=O)O` [compound 11, 11], which Kd is on record?
**A.** 0.2 µM

**Q.** With `COc1ccc2c(c1)cc(C(=O)NS(=O)(=O)c1ccc(C(C)(C)C)cc1)n2CC(=O)O` [compound 12, 12] as the compound, how does the Kd read?
**A.** 0.46 µM

**Q.** For `COc1ccc2c(c1)cc(C(=O)NS(=O)(=O)c1ccc3ccccc3c1)n2CC(=O)O` [compound 13, 13], which Kd is on record?
**A.** 0.61 µM

**Q.** Which Kd does the source give for `COc1ccc2c(c1)cc(C(=O)NS(=O)(=O)c1ccc(C(F)(F)F)cc1[N+](=O)[O-])n2CC(=O)O` [compound 14, 14] here?
**A.** 0.8 µM

**Q.** Which Kd does the source give for `COc1ccc2c(c1)cc(C(=O)NS(=O)(=O)N1CCOCC1)n2CC(=O)O` [compound 15, 15] here?
**A.** 3.5 µM

**Q.** Which Kd does the source give for `COc1ccc2c(c1)cc(C(=O)NS(=O)(=O)N1CCN(C(C)=O)CC1)n2CC(=O)O` [compound 16, 16] here?
**A.** 17 µM

**Q.** For `COc1ccc2c(c1)cc(C(=O)NS(=O)(=O)c1ccc(NC(C)=O)cc1)n2CC(=O)O` [compound 18, 18], which Kd is on record?
**A.** 6 µM

**Q.** For `COc1ccc(S(=O)(=O)NC(=O)c2cc3cc(OC)ccc3n2CC(=O)O)cc1` [compound 19, 19], which Kd is on record?
**A.** 2 µM

target: T1, Mycobacterium tuberculosis pantothenate synthetase; assay: enzyme inhibition assay; format: biochemical; conditions: not given

**Q.** With `COc1ccc2c(c1)cc(C(=O)NS(=O)(=O)c1ccc(C(F)(F)F)cc1)n2CC(=O)O` [compound 11, 11] as the compound, how does the pIC50 read?
**A.** 5.24

**Q.** With `COc1ccc2c(c1)cc(C(=O)NS(=O)(=O)Cc1ccc(C(F)(F)F)cc1)n2CC(=O)O` [compound 20, 20] as the compound, how does the pIC50 read?
**A.** 6.60
